Source: ChEMBL document CHEMBL5528053, “Discovery of Novel Isoquinoline Analogues as Dual Tubulin Polymerization/V-ATPase Inhibitors with Immunogenic Cell Death Induction” (J Med Chem, 2024)
Active and inactive are the calls of the source. The calls are words filed in the database; no cut-off is given here.

Key:
[1] = system: PC-3; assay: Antiproliferative activity against human PC-3 cells assessed as inhibition of cell growth after 72 hrs by MTT assay; type: functional, cell-based; conditions: PC-3, 72 h
[2] = system: MDA-MB-231; assay: Antiproliferative activity against human MDA-MB-231 cells assessed as inhibition of cell growth after 72 hrs by MTT assay; type: functional, cell-based; conditions: MDA-MB-231, 72 h
[3] = system: DU-145; assay: Antiproliferative activity against human DU-145 cells assessed as inhibition of cell growth after 72 hrs by MTT assay; type: functional, cell-based; conditions: DU-145, 72 h
[4] = system: A549; assay: Antiproliferative activity against human A549 cells assessed as inhibition of cell growth after 72 hrs by MTT assay; type: functional, cell-based; conditions: A549, 72 h
[5] = Anticancer activity against mouse RM1 cells assessed as increase in mean fluorescence intensity at 2 nM measured after 24 hrs by flow cytometry analysis (reference value: 7.40+/-3.96 ); type: functional
[6] = system: PC-3; assay: Inhibition of autophagy in human PC-3 cells assessed as increase in number of autophagosomes at 50 uM measured after 3 hrs by immunofluorescence imaging based analysis; type: functional, cell-based
[7] = Toxicity in ICR mouse assessed as bone marrow suppression by measuring WBC level at 5 mg/kg, ip measured for 14 days; type: organism-based; conditions: in vivo, 336 h, time 14 day
[8] = Toxicity in ICR mouse assessed as decrease in lymphocytes at 5 mg/kg, ip measured for 14 days; type: organism-based; conditions: in vivo, 336 h, time 14 day
[9] = system: RM1; assay: Antitumor immunity against mouse RM1 cells homografted in C57BL/6 mouse model assessed as increase in activation of tumor infiltrating lymphocytes in spleen at 5 mg/kg, iv administered every two days for 14 days by flow cytometry analysis; type: functional, organism-based; conditions: time 14.0 day
[10] = Antitumor immunity against mouse RM1 cells homografted in C57BL/6 mouse model assessed as increase in tumor infiltrating CD3+CD8+T cells (CTLs) at 5 mg/kg, iv administered every two days for 14 days by flow cytometry analysis (reference value: 0.89%); type: functional; conditions: time 14 day
[11] = Toxicity in ICR mouse assessed as effect on ALT level at 5 mg/kg, ip measured for 14 days; type: organism-based; conditions: in vivo, 336 h, time 14 day
[12] = system: RM1; assay: Antitumor immunity against mouse RM1 cells homografted in C57BL/6 mouse model assessed as increase in tumor infiltrating CD3+CD8+T cells (CTLs) in spleen at 5 mg/kg, iv administered every two days for 14 days by flow cytometry analysis; type: functional, organism-based; conditions: time 14.0 day
[13] = Antitumor activity against mouse RM1 cells xenografted in immunocompetent […] mouse model assessed as tumor growth inhibition at 5 mg/kg, iv measured every two days for 14 days relative to control; type: functional; conditions: RM1, 336 h, time 14 day, read-out: TGI
[14] = Antitumor immunity against mouse RM1 cells homografted in C57BL/6 mouse model assessed as increase in tumor infiltrating lymphocytes at 5 mg/kg, iv administered every two days for 14 days by flow cytometry analysis (reference value: 5.26%); type: functional; conditions: time 14 day
[15] = Toxicity in ICR mouse assessed as bone marrow suppression by measuring hemoglobin count at 5 mg/kg, ip measured for 14 days; type: organism-based; conditions: in vivo, 336 h, time 14 day
[16] = system: RM1; assay: Antitumor immunity against mouse RM1 cells homografted in C57BL/6 mouse model assessed as increase in tumor infiltrating helper T lymphocytes in spleen at 5 mg/kg, iv administered every two days for 14 days by flow cytometry analysis; type: functional, organism-based; conditions: time 14.0 day
[17] = Toxicity in ICR mouse assessed as bone marrow suppression by measuring RBC level at 5 mg/kg, ip measured for 14 days; type: organism-based, Erythrocyte; conditions: in vivo, 336 h, time 14 day
[18] = Antitumor activity against mouse RM1 cells homografted in C57BL/6 mouse model assessed as tumor growth inhibition at 5 mg/kg, iv administered every two days for 14 days by vernier caliper based analysis relative to control; type: functional; conditions: RM1, 336 h, time 14 day, read-out: TGI
[19] = Antitumor immunity against mouse RM1 cells homografted in C57BL/6 mouse model assessed as increase in tumor infiltrating helper T lymphocytes at 5 mg/kg, iv administered every two days for 14 days by flow cytometry analysis (reference value: 6.59%); type: functional; conditions: time 14 day

| Structure (SMILES) | IC50 [1] [nM] | IC50 [2] [nM] | IC50 [3] [nM] | IC50 [4] [nM] | further results |
| --- | --- | --- | --- | --- | --- |
| COc1cc(-c2nc(C(N)=O)cc3cc4c(cc23)OCCO4)cc2c1OCCO2 | 1350 | 750 | 1560 | 1850 | – |
| COc1cc(-c2nc(C(=O)NO)cc3cc4c(cc23)OCCO4)cc(OC)c1OC | 1480 | 1580 | 1940 | 1750 | – |
| CCOc1c(OC)cc(-c2nc(C(N)=O)cc3cc4c(cc23)OCCO4)cc1OC | > 10000 | > 10000 | > 10000 | > 10000 | – |
| COC(=O)c1cc2cc3c(cc2c(-c2cc(OC)c(OC)c(OC)c2)n1)OCCO3 | 1570 | 3210 | 2100 | 1530 | – |
| COc1ccc2c(-c3cc(OC)c(OC)c(OC)c3)nc(C(N)=O)cc2c1 | > 10000 | > 10000 | > 10000 | > 10000 | – |
| COc1cccc2c1C(=O)c1c(O)c3c(c(O)c1C2=O)C[C@@](O)(C(=O)CO)C[C@@H]3O[C@H]1C[C@H](N)[C@H](O)[C@H](C)O1 [DOXORUBICIN] | – | – | – | – | Flu intensity [5]: 184.3 |
| CCN(CC)CCCC(C)Nc1ccnc2cc(Cl)ccc12 (stereo unspecified) | – | – | – | – | inhibition [6]: Active |
| COc1cc(-c2nc(C(N)=O)cc3cc4c(cc23)OCCO4)cc(I)c1OC | 170 | 300 | 300 | 180 | – |
| COc1cc2c(O)c3c(c(-c4ccc5c(c4)OCO5)c2cc1OC)C(=O)OC3 [DIPHYLLIN] | 210 | 2270 | 380 | 890 | – |
| COc1cc(-c2nc(CO)cc3cc4c(cc23)OCCO4)cc(OC)c1OC | 1630 | 1350 | 1460 | 1260 | – |
| COc1cc(-c2nc(C(N)=O)cc3cc4c(cc23)OCCO4)cc2c1OCCCO2 | 3340 | > 10000 | 8350 | 2950 | – |
| COc1c(Cl)cc(-c2nc(C(N)=O)cc3cc4c(cc23)OCCO4)cc1Cl | 640 | 870 | 490 | 250 | – |
| CCCOc1c(OC)cc(-c2nc(C(N)=O)cc3cc4c(cc23)OCCO4)cc1OC | 1990 | 2420 | 1640 | 1390 | – |
| CCOc1ccc2c(-c3cc(OC)c(OC)c(OC)c3)nc(C(N)=O)cc2c1 | > 10000 | > 10000 | > 10000 | > 10000 | – |
| CC(=O)O[C@H]1C(=O)[C@@]2(C)[C@H]([C@H](OC(=O)c3ccccc3)[C@]3(O)C[C@H](OC(=O)[C@H](O)[C@@H](NC(=O)c4ccccc4)c4ccccc4)C(C)=C1C3(C)C)[C@]1(OC(C)=O)CO[C@@H]1C[C@@H]2O [PACLITAXEL] | – | – | – | – | Activity [7]: Toxic; Activity [8]: Toxic; Activity [9]: Active; Activity [10]: 1.16%; Activity [11]: Toxic; Activity [12]: inactive; inhibition in vivo at 5 mg/kg [13]: 55.5%; Activity [14]: 5.68%; Activity [15]: Toxic; Activity [16]: inactive; Activity [17]: Toxic; inhibition in vivo at 5 mg/kg [18]: 54.6%; Activity [19]: 9.81% |
| COc1cc(-c2nc(C(N)=O)cc3cc4c(cc23)OCCO4)cc(Cl)c1OC | 200 | 210 | 270 | 160 | – |
| COc1cc2c(c(OC)c1OC)-c1ccc(OC)c(=O)cc1[C@@H](NC(C)=O)CC2 [COLCHICINE] | 50 | 120 | 70 | – | – |
| COc1c(I)cc(-c2nc(C(N)=O)cc3cc4c(cc23)OCCO4)cc1I | 1980 | 730 | 3220 | 2150 | – |
| COc1cc(-c2nc(C(N)=O)cc3cc4c(cc23)OCCO4)cc(OC)c1OC | 1180 | 1270 | 1050 | 840 | – |
| CCCOc1cc(-c2nc(C(N)=O)cc3cc4c(cc23)OCCO4)cc(OC)c1OC | > 10000 | > 10000 | > 10000 | 5560 | – |
| COc1cc(-c2nc(C(=O)O)cc3cc4c(cc23)OCCO4)cc(OC)c1OC | > 10000 | > 10000 | > 10000 | > 10000 | – |
| CCCOc1ccc2c(-c3cc(OC)c(OC)c(OC)c3)nc(C(N)=O)cc2c1 | > 10000 | > 10000 | > 10000 | > 10000 | – |
| COc1c(Br)cc(-c2nc(C(N)=O)cc3cc4c(cc23)OCCO4)cc1Br | 270 | 400 | 320 | 200 | – |
| CCOc1cc(-c2nc(C(N)=O)cc3cc4c(cc23)OCCO4)cc(OC)c1OC | 390 | 480 | 540 | 370 | – |
| COc1cc(-c2nc(C(N)=O)cc3cc4c(cc23)OCCO4)cc2c1OCO2 | 1120 | 1310 | 750 | 2010 | – |
| COc1cc(-c2nc(C(N)=O)cc3cc(OCCCN4CCOCC4)ccc23)cc(OC)c1OC | > 10000 | > 10000 | > 10000 | > 10000 | – |
